Results on two molecules are retold here after PMC4792962, “A unified mechanism for proteolysis and autocatalytic activation in the 20S proteasome” (Nature Communications, 2016).

Substitutions are numbered along the chain they refer to.

Experiment [1] addresses T1, yeast 20S proteasome core particle (yCP), β5 active site (ChT-L activity) (Saccharomyces cerevisiae, UniProt P23724+P30656, P30656:T76S).
T1 construct: gene PRE2; native 20S core particle purified from yeast (α7β7β7α7, 28 subunits), untagged; β5 mature after autocatalytic propeptide removal; in 'pp trans' mutants the β5 propeptide is expressed separately; with Proteasome subunit beta type-1; Proteasome subunit beta type-2; Proteasome subunit beta type-3; Proteasome subunit beta type-4; Proteasome subunit beta type-7; Proteasome subunit alpha type-1; Proteasome subunit alpha type-2; Proteasome subunit alpha type-3; Proteasome subunit alpha type-4; Proteasome subunit alpha type-5; Proteasome subunit alpha type-6; Probable proteasome subunit alpha type-7
T1 sequence (P30656 76-287 T76S): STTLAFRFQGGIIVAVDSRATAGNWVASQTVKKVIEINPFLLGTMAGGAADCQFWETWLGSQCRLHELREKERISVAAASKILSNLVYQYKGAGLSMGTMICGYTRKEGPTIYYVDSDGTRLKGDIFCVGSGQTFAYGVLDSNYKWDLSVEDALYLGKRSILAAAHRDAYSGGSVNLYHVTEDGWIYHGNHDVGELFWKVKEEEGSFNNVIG
T1 sequence (P23724 20-241): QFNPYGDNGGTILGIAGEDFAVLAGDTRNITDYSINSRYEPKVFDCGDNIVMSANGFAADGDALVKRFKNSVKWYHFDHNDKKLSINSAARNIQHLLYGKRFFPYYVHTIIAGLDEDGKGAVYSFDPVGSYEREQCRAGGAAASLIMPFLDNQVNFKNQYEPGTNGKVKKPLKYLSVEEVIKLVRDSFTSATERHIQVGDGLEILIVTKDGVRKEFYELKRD
Kind of experiment: fluorescence inhibition assay, Suc-LLVY-AMC. It counts as biochemical.

Experiment [2] addresses T2, yeast 20S proteasome core particle (yCP), β5 active site (ChT-L activity) (Saccharomyces cerevisiae, UniProt P23724+P30656).
T2 construct: gene PRE2; native 20S core particle purified from yeast (α7β7β7α7, 28 subunits), untagged; β5 mature after autocatalytic propeptide removal; in 'pp trans' mutants the β5 propeptide is expressed separately; with Proteasome subunit beta type-1; Proteasome subunit beta type-2; Proteasome subunit beta type-3; Proteasome subunit beta type-4; Proteasome subunit beta type-7; Proteasome subunit alpha type-1; Proteasome subunit alpha type-2; Proteasome subunit alpha type-3; Proteasome subunit alpha type-4; Proteasome subunit alpha type-5; Proteasome subunit alpha type-6; Probable proteasome subunit alpha type-7
T2 sequence (P30656 76-287): T1 sequence (P30656 76-287 T76S) with S1T
T2 sequence (P23724 20-241): T1 sequence (P23724 20-241)
Kind of experiment: fluorescence inhibition assay, Suc-LLVY-AMC. It counts as biochemical.

For experiment [3], the target named is T3, yeast 20S proteasome core particle (yCP), β5 active site (ChT-L activity) (Saccharomyces cerevisiae, UniProt P23724+P30656, P30656:K108A).
T3 construct: gene PRE2; native 20S core particle purified from yeast (α7β7β7α7, 28 subunits), untagged; β5 mature after autocatalytic propeptide removal; in 'pp trans' mutants the β5 propeptide is expressed separately; with Proteasome subunit beta type-1; Proteasome subunit beta type-2; Proteasome subunit beta type-3; Proteasome subunit beta type-4; Proteasome subunit beta type-7; Proteasome subunit alpha type-1; Proteasome subunit alpha type-2; Proteasome subunit alpha type-3; Proteasome subunit alpha type-4; Proteasome subunit alpha type-5; Proteasome subunit alpha type-6; Probable proteasome subunit alpha type-7
T3 sequence (P30656 76-287 K108A): T1 sequence (P30656 76-287 T76S) with S1T, K33A
T3 sequence (P23724 20-241): T1 sequence (P23724 20-241)
The experiment can be described thus: X-ray crystal structure. It counts as binding. Particulars: propeptide expressed in trans, covalent.

Experiment [4] has as its target T4, yeast 20S proteasome core particle (yCP), β5 active site (ChT-L activity) (Saccharomyces cerevisiae, UniProt P23724+P30656, P30656:D243N).
T4 construct: gene PRE2; native 20S core particle purified from yeast (α7β7β7α7, 28 subunits), untagged; β5 mature after autocatalytic propeptide removal; in 'pp trans' mutants the β5 propeptide is expressed separately; with Proteasome subunit beta type-1; Proteasome subunit beta type-2; Proteasome subunit beta type-3; Proteasome subunit beta type-4; Proteasome subunit beta type-7; Proteasome subunit alpha type-1; Proteasome subunit alpha type-2; Proteasome subunit alpha type-3; Proteasome subunit alpha type-4; Proteasome subunit alpha type-5; Proteasome subunit alpha type-6; Probable proteasome subunit alpha type-7
T4 sequence (P30656 76-287 D243N): T1 sequence (P30656 76-287 T76S) with S1T, D168N
T4 sequence (P23724 20-241): T1 sequence (P23724 20-241)
The experiment can be described thus: X-ray crystal structure. Type of experiment: binding. The note with it: crystal soak; covalent (morpholine ring with Thr1).

Consider `CC(C)C[C@H](NC(=O)[C@H](Cc1ccccc1)NC(=O)c1cnccn1)B(O)O` [bortezomib], for which the values for the IC50 in experiment [1] and in experiment [2] were 649 ± 176 nM and 174 ± 29 nM, respectively.

With `CC(C)C[C@H](NC(=O)[C@H](CCc1ccccc1)NC(=O)CN1CCOCC1)C(=O)N[C@@H](Cc1ccccc1)C(=O)N[C@@H](CC(C)C)C(=O)[C@@]1(C)CO1` [carfilzomib], the X-ray crystal structure entry in experiment [3] was “crystal structure of the β5-K33A pp trans mutant in complex with carfilzomib”; in experiment [4], “Soaking the β5-D166N crystals with carfilzomib and MG132 resulted in covalent modification of Thr1”.

What is called IC50 is the midpoint of a concentration-inhibition curve. Low values mean greater potency in that assay, high ones weaker potency in that assay.
